The values below come from patent US7250434B2, “CCK-1 receptor modulators” (Janssen Pharmaceutica N.V., priority 2003, dated 2007).

The structures appear in SMILES notation.

This assay has as its target T1, CCK-1 receptor (Homo sapiens, UniProt P32238).
T1 construct: expressed in transfected cells; membranes
T1 sequence (P32238 1-428): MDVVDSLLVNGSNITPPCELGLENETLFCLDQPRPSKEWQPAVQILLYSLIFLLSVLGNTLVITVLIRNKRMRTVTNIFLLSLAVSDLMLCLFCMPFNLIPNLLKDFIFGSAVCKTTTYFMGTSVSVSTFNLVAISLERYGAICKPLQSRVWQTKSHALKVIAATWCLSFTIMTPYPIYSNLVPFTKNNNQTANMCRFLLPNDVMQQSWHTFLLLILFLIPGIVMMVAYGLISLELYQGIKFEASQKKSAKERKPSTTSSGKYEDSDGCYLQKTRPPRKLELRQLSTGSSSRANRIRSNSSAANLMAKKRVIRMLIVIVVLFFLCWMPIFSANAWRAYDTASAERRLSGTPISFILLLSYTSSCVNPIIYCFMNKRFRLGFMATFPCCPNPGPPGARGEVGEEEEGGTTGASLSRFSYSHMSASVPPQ
As to the kind of experiment: [125I]-BH-CCK-8S competition binding to membranes of CHO-K1 cells stably transfected with the CCK-1 receptor. The settings on record: membranes of CCK-1 transfected CHO-K1 cells; 20 pM [125I]-BH-CCK-8S; 0.3 μM PD-134,308 present; 60 min at 21±3° C.; Cheng-Prusoff. The protocol: CHO-K1 cells that had undergone stable transfection with the CCK-1 receptor were grown in DMEM supplemented with L-glutamine (2 mM), penicillin (50 units/mL) and streptomycin (50 μg/mL). Cells were cultured under continuous G418 selection (2 mM) and were harvested using a rubber cell scraper. CHO-K1 cells were sub-cultured a maximum of ten times before being reseeded from the original stocks.
Membranes were prepared from the stably transfected CHO-K1 cells. Frozen cell pellets (−40° C.) were thawed in 14 mL of buffer A (10 mM HEPES, 130 mM NaCl, 4.7 mM KCl, 5 mM MgCl, 1 mM EGTA and 15.4 mg/100 mL bacitracin at pH 7.2), adapted from Harper et al. (Br. J. Pharmacol. 1996, 118:1717-1726). The thawed pellets were homogenized using a Polytron PT-10 (7×1 s). The homogenates were centrifuged for 5 min at 1500 rpm (600×g), and the resulting pellets were discarded. The supernatants were re-centrifuged in order to collect the receptor-membrane pellets (25 min 15,000 rpm; 39,800×g), which were re-suspended in buffer A.
All assays were conducted in 96-well plates (GF/B millipore filter plates) using buffer A, with 0.3 μM PD-134,308, for the dilutions. The CCK-2 receptor ligand was included to eliminate the contribution of this receptor subtype to the binding. For the optimal cell number determination experiments 20 pM [^125I]-BH-CCK-8S (50 μL 60 pM solution) was incubated with a range of cell concentrations (2.5×105 to 12.5×10^5 cells/well) in a total volume of 150 μL. Total binding of [^125I]-BH-CCK-8S was determined in the presence of 15 μL of buffer A. Non-specific binding of [^125I]-BH-CCK-8S was determined in the presence of 15 μL of 100 μM 2-naphthalenesulphonyl L-aspartyl-(2-phenethyl)amide (2-NAP: see R. A. Hull et al. Br. J. Pharmacol. 1993, 108:734-740), a CCK-1 receptor selective antagonist that is structurally unrelated to the radioligand [^125I]-BH-CCK-8S. The assay preparation was incubated for 1 h at 21±3° C., and then the assay was terminated upon rapid filtration of the preparation under reduced pressure. The loaded filters were washed three times using undiluted PBS (100 μL), and then the residues were transferred to 5 mL scintillation tubes. Bound radioactivity was determined using a gamma counter (count time=1 min). From these experiments a cell concentration of 1 pellet in 40 mL of buffer (2.5×10^6 cells/mL) was chosen for use in other assays (below). To validate the radioligand concentration and incubation time for the assay, saturation and kinetic binding studies were also conducted (see M. F. Morton, The Pharmacological Characterization of Cholecystokinin Receptors in the Human Gastrointestinal Tract. PhD Thesis, University of London, 2000). The affinity of novel compounds was estimated by incubating membrane preparations with 15 μL of competing ligand (0.1 pM-1 mM) for 60 min at 21±3° C. The assay was then terminated according to the procedure outlined above.
The pKi values were determined using the equation of Y.-C. Cheng and W. H. Prusoff (Biochem. Pharmacol. 1973, 22(23):3099-3108):
[formula] To circumvent problems associated with computer-assisted data analysis of compounds with low affinity, the data obtained in the current study were weighted according to a method described by Morton (2000). In brief, 100% and 0% specific binding were defined independently using total binding and binding obtained in the presence of a high concentration of the reference antagonist, 2-NAP.
A word on the Ki: it is the equilibrium dissociation constant of an inhibitor or competing ligand from its target. Turning to `O=C(O)/C(=C/c1nc(-c2cc(Cl)ccc2Cl)c(-c2ccc3c(c2)OCO3)[nH]1)c1cccc2ccccc12` [Example 23, (E)-3-[5-Benzo[1,3]dioxol-5-yl-4-(2,5-dichloro-phenyl)-1H-imidazol-2-yl]-2-naphthalen-1-yl-acrylic acid], the Ki is 79.4 nM.

The molecule `Cc1cccc(/C(=C/c2nc(-c3cc(Cl)ccc3Cl)c(-c3ccc4c(c3)OCO4)[nH]2)C(=O)O)c1` [Example 3, (Z)-3-[5-Benzo[1,3]dioxol-5-yl-4-(2,5-dichloro-phenyl)-1H-imidazol-2-yl]-2-m-tolyl-acrylic acid] showed a Ki of 2 nM.

In turn, `COc1ccc(-c2[nH]c(/C=C(/C(=O)O)c3cccc(C(F)(F)F)c3)nc2-c2ccc(Cl)c(Cl)c2)cc1` [Example 16, (E)-3-[4-(3,4-Dichloro-phenyl)-5-(4-methoxy-phenyl)-1H-imidazol-2-yl]-2-(3-trifluoromethyl-phenyl)-acrylic acid] showed a Ki of 79.4 nM.

For `COc1ccc(-c2[nH]c(/C=C(/C(=O)O)c3cccc(Cl)c3)nc2-c2ccc(Cl)c(Cl)c2)cc1` [Example 18, (E)-2-(3-Chloro-phenyl)-3-[4-(3,4-dichloro-phenyl)-5-(4-methoxy-phenyl)-1H-imidazol-2-yl]-acrylic acid], the Ki is 63.1 nM.

`O=C(O)/C(=C\c1nc(-c2ccccn2)c(-c2ccc3ccccc3c2)[nH]1)c1cccc(Cl)c1` [Example 12, (Z)-2-(3-Chloro-phenyl)-3-(5-naphthalen-2-yl-4-pyridin-2-yl-1H-imidazol-2-yl)-acrylic acid] gave a Ki of 5.01 nM.

Molecule `COc1ccc(-c2[nH]c(CC(C(=O)O)c3ccc(Cl)cc3)nc2-c2ccc(Cl)c(Cl)c2)cc1` (centres unmarked) [Example 28, 2-(4-Chloro-phenyl)-3-[4-(3,4-dichloro-phenyl)-5-(4-methoxy-phenyl)-1H-imidazol-2-yl]-propionic acid] showed a Ki of 63.1 nM.

On to `O=C(O)/C(=C\c1nc(-c2cc(Cl)ccc2Cl)c(-c2ccc3c(c2)OCO3)[nH]1)c1ccc(Cl)cc1` [Example 5, (Z)-3-[5-Benzo[1,3]dioxol-5-yl-4-(2,5-dichloro-phenyl)-1H-imidazol-2-yl]-2-(4-chloro-phenyl)-acrylic acid], for which the Ki is 3.16 nM.

Molecule `COc1ccc(-c2[nH]c(/C=C(\C(=O)O)c3cccc(C)c3)nc2-c2ccc(Cl)c(Cl)c2)cc1` [Example 9, (Z)-3-[4-(3,4-Dichloro-phenyl)-5-(4-methoxy-phenyl)-1H-imidazol-2-yl]-2-m-tolyl-acrylic acid] showed a Ki of 7.94 nM.

Take `COc1ccc(-c2[nH]c(/C=C(\C(=O)O)c3cccc(Cl)c3)nc2-c2ccc(Cl)c(Cl)c2)cc1` [Example 8, (Z)-2-(3-Chloro-phenyl)-3-[4-(3,4-dichloro-phenyl)-5-(4-methoxy-phenyl)-1H-imidazol-2-yl]-acrylic acid]: the Ki was 5.01 nM.

Regarding `COc1cccc(-c2nc(CC(C(=O)O)c3cccc4ccccc34)[nH]c2-c2cccc(OC)c2)c1` (centres unmarked) [Example 33, 3-[4,5-Bis-(3-methoxy-phenyl)-1H-imidazol-2-yl]-2-naphthalen-1-yl-propionic acid], the affinity, expressed as Ki, was 2510 nM.

As to `O=C(O)/C(=C/c1nc(-c2cc(Cl)ccc2Cl)c(-c2ccc3c(c2)OCO3)[nH]1)c1cccc(C(F)(F)F)c1` [Example 21, (E)-3-[5-Benzo[1,3]dioxol-5-yl-4-(2,5-dichloro-phenyl)-1H-imidazol-2-yl]-2-(3-trifluoromethyl-phenyl)-acrylic acid], the inhibition constant Ki was 20 nM.

`O=C(O)/C(=C\c1nc(-c2cc(Cl)ccc2Cl)c(-c2ccc3c(c2)OCO3)[nH]1)c1cccc2ccccc12` [Example 4, (Z)-3-[5-Benzo[1,3]dioxol-5-yl-4-(2,5-dichloro-phenyl)-1H-imidazol-2-yl]-2-naphthalen-1-yl-acrylic acid] had a Ki of 2.51 nM.

`Cc1cccc(/C(=C\c2nc(-c3cc(Cl)ccc3Cl)c(-c3ccc4c(c3)OCO4)[nH]2)C(=O)O)c1` [Example 19, (E)-3-[5-Benzo[1,3]dioxol-5-yl-4-(2,5-dichloro-phenyl)-1H-imidazol-2-yl]-2-m-tolyl-acrylic acid] showed a Ki of 15.8 nM.

For the molecule `O=C(O)/C(=C/c1nc(-c2cc(Cl)ccc2Cl)c(-c2ccc3c(c2)OCO3)[nH]1)c1cccc(Cl)c1` [Example 2, (E)-3-[5-Benzo[1,3]dioxol-5-yl-4-(2,5-dichloro-phenyl)-1H-imidazol-2-yl]-2-(3-chloro-phenyl)-acrylic acid], the Ki was 3.16 nM.

`COc1ccc(-c2[nH]c(CC(C(=O)O)c3cccc(C(F)(F)F)c3)nc2-c2ccc(Cl)c(Cl)c2)cc1` (centres unmarked) [Example 27, 3-[4-(3,4-Dichloro-phenyl)-5-(4-methoxy-phenyl)-1H-imidazol-2-yl]-2-(3-trifluoromethyl-phenyl)-propionic acid] showed a Ki of 50.1 nM.

`COc1ccc(-c2[nH]c(CC(C(=O)O)c3cccc(C)c3)nc2-c2ccc(Cl)c(Cl)c2)cc1` (centres unmarked) [Example 24, 3-[4-(3,4-Dichloro-phenyl)-5-(4-methoxy-phenyl)-1H-imidazol-2-yl]-2-m-tolyl-propionic acid]: the affinity, expressed as Ki, was 31.6 nM.

Consider `O=C(O)/C(=C\c1nc(-c2cc(Cl)ccc2Cl)c(-c2ccc3c(c2)OCO3)[nH]1)c1cccc(C(F)(F)F)c1` [Example 7, (Z)-3-[5-Benzo[1,3]dioxol-5-yl-4-(2,5-dichloro-phenyl)-1H-imidazol-2-yl]-2-(3-trifluoromethyl-phenyl)-acrylic acid], for which the affinity corresponds to a Ki of 5.01 nM.

Turning to `O=C(O)C(Cc1nc(-c2ccc(F)cc2)c(-c2ccc(F)cc2)[nH]1)c1cccc2ccccc12` (centres unmarked) [Example 34, 3-[4,5-Bis-(4-fluoro-phenyl)-1H-imidazol-2-yl]-2-naphthalen-1-yl-propionic acid], the affinity corresponds to a Ki of 10000 nM.

Molecule `Cc1ccc(-c2nc(CC(C(=O)O)c3cccc(C)c3)n(C)c2-c2ccc(C)cc2)cc1` (centres unmarked) [Example 31, 3-(1-Methyl-4,5-di-p-tolyl-1H-imidazol-2-yl)-2-m-tolyl-propionic acid] gave a Ki of 39.8 nM.

`O=C(O)/C(=C\c1nc(-c2cc(Cl)ccc2Cl)c(-c2ccc3c(c2)OCO3)[nH]1)c1cccc(Cl)c1` [Example 1, (Z)-3-[5-Benzo[1,3]dioxol-5-yl-4-(2,5-dichloro-phenyl)-1H-imidazol-2-yl]-2-(3-chloro-phenyl)-acrylic acid] had an inhibition constant Ki of 2 nM.

`COc1ccc(-c2[nH]c(CC(C(=O)O)c3cccc4ccccc34)nc2-c2ccc(Cl)c(Cl)c2)cc1` (centres unmarked) [Example 26, 3-[4-(3,4-Dichloro-phenyl)-5-(4-methoxy-phenyl)-1H-imidazol-2-yl]-2-naphthalen-1-yl-propionic acid] had a Ki of 39.8 nM.

Take `COc1ccc(-c2[nH]c(/C=C(/C(=O)O)c3cccc(C)c3)nc2-c2ccc(Cl)c(Cl)c2)cc1` [Example 17, (E)-3-[4-(3,4-Dichloro-phenyl)-5-(4-methoxy-phenyl)-1H-imidazol-2-yl]-2-m-tolyl-acrylic acid]: the affinity corresponds to a Ki of 79.4 nM.

`COc1ccc(-c2[nH]c(/C=C(\C(=O)O)c3ccc(C)cc3)nc2-c2ccc(Cl)c(Cl)c2)cc1` [Example 11, (Z)-3-[4-(3,4-Dichloro-phenyl)-5-(4-methoxy-phenyl)-1H-imidazol-2-yl]-2-p-tolyl-acrylic acid] showed a Ki of 10 nM.
